The nature of data set [1]: Water solubility. The class given is physicochemical. The source says: Considering the fact that sulfation has been correlated with mechanism of detoxification elimination in metabolism, the presence of precursors of chafuroside which are sulfated derivatives in tea leaves has great significance. As for isovitexin and vitexin, their anticancer effect, effect of reducing damages by UV irradiation, inhibiting effect of COX, antioxidant effect, antianxiety effect and the like have been drawing the attention recently.
(§1) In the result, the production of chafurosides A and B by heating was detected only in all of the extracts and their aqueous fractions.

Data set [2] is described as follows: Liquid-liquid partition with water and n-BuOH. The conditions noted are these: qualitative. Format: physicochemical. The protocol: 1 g of oolong tea leaves prepared from Shizu 7132 was ground and was subjected to extract with MeOH, 50%-MeOH and water (1 ml) under reflux. After concentrating, drying and solidifying the extract liquid under reduced pressure, it was suspended in water (0.4 ml) and then was extracted with n-BuOH (4 ml and 1 ml). All of the extracts, their aqueous fractions and n-BuOH fractions obtained by liquid-liquid partition thereof were heated at 160° C. for 40 minutes.
as §1

Data set [3] deals with atopic disease model induced by 2,4-dinitro-fluorobenzene. The conditions noted are these: cited from earlier work; for activity in atopic disease model: oral administration, ingredients isolated from oolong tea.
Data set [4] has as its system intestinal polyp formation induced by azoxymethane (AOM). The following applies: 2.5 mg/kg, same dosage as indomethacin; cited from earlier work.

“Also recorded” adds a separate entry of the source. Like-named read-outs stand apart in the source and are kept apart here.

As for `O=c1cc(-c2ccc(O)cc2)oc2c([C@@H]3O[C@H](CO)[C@@H](O)[C@H](O)[C@H]3O)c(O)cc(O)c12` [vitexin], in data set [1] (qualitative), the solubility in water entry is recorded as “very poorly soluble in water”. Moreover, in data set [2], the “fraction after liquid-liquid partition water / n-butanol” value was “move to n-BuOH fractions; also recorded: move to the n-butanol solvent fraction”.
Turning to `O=c1cc(-c2ccc(O)cc2)oc2c3c(cc(O)c12)O[C@H]1[C@@H](O)[C@H](O)[C@@H](CO)O[C@@H]31` [chafuroside B], the “activity in atopic disease model” value in data set [3] is “exhibiting activities via oral administration”.
`O=c1cc(-c2ccc(O)cc2)oc2cc3c(c(O)c12)[C@@H]1O[C@H](CO)[C@@H](O)[C@H](O)[C@@H]1O3` [chafuroside A]: the dermal inflammation-inhibiting activity entry in data set [3] (10 μg/kg, comparable with Prednisolone (10 mg/kg) and Betamethasone (0.8 mg/kg)) is given as “significant dermal inflammation-inhibiting activity”. Moreover, the “activity in atopic disease model” value in data set [3] is listed as “exhibiting activities via oral administration”. Besides, in data set [4], the “inhibiting activity against intestinal polyp formation” value was “effectively-inhibiting activity”.
As for `O=c1cc(-c2ccc(O)cc2)oc2c([C@@H]3O[C@H](CO)[C@@H](O)[C@H](O)[C@H]3OS(=O)(=O)O)c(O)cc(O)c12` [prechafuroside B, vitexin 2″-O-sulfate], the solubility in water entry in data set [1] is given as “high water solubility”.
`O=c1cc(-c2ccc(O)cc2)oc2cc(O)c([C@@H]3O[C@H](CO)[C@@H](O)[C@H](O)[C@H]3O)c(O)c12` [isovitexin]: the solubility in water entry in data set [1] (qualitative) is given as “very poorly soluble in water”. Besides, the “fraction after liquid-liquid partition water / n-butanol” value in data set [2] is reported as “move to the n-butanol solvent fraction”; in data set [2] (listed as Isovitexin), “move to n-BuOH fractions”.
Consider `O=c1cc(-c2ccc(O)cc2)oc2cc(O)c([C@@H]3O[C@H](CO)[C@@H](O)[C@H](O)[C@H]3OS(=O)(=O)O)c(O)c12` [prechafuroside A, isovitexin 2″-O-sulfate], for which the solubility in water result in data set [1] is given as “high water solubility”.

These data come from US8367622B2, “Sulfated C-glycoside, method for isolating same and method for synthesizing same” (Shizuoka Prefecture Public University Corporation, priority 2009, dated 2013).
